From paper PMC4511007 (PLoS ONE, 2015)
Read-outs that look alike come from different tables or passages of the source.

Key:
VRV-PLA2-VIII = VRV-PLA2-VIII (Daboia russelii, UniProt P59071); assay: biochemical; design: species or system Vipera russelli
RV venom PLA2 = assay: Indirect haemolytic activity (RV venom PLA2 inhibition); assay type: biochemical, Vipera russelli; settings: 1 μg RV venom pre-incubated with compound 10 min at 37°C, NS: Not Significant

VRV-PLA2-VIII, sequence (P59071 whole entry, looked up): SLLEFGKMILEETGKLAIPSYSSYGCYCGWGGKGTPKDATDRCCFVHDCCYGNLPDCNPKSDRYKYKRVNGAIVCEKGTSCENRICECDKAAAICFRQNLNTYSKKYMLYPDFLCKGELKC

Compound | melting point [°C] | IC50 (VRV-PLA2-VIII) [µM] | IC50 (RV venom PLA2) [µM] | IC50 (VRV-PLA2-VIII; read-out: IC50 (μM) VRV-PLA2-VIII) [µM]
CC(=O)c1c(C)nc2c(-c3ccc(Cl)c(C(F)(F)F)c3)cccn12 [3a, 1-(8-(4-chloro-3-(trifluoromethyl)phenyl)-2-methylimidazo[1,2-a]pyridin-3-yl)ethanone] | 141 to 143 | 155 | 110 | –
CC(=O)c1c(C)nc2c(-c3ccc(OCc4ccccc4)c(F)c3)cccn12 [3b, 1-(8-(4-(benzyloxy)-3-fluorophenyl)-2-methylimidazo[1,2-a]pyridin-3-yl)ethanone] | 154 to 156 | 140 | > 500 | –
CC(=O)c1c(C)nc2c(-c3ccccc3)cccn12 [3c, 1-(2-methyl-8-phenylimidazo[1,2-a]pyridin-3-yl)ethanone] | 160 to 162 | – | 194 | –
CC(=O)c1c(C)nc2c(-c3cccc(Cl)c3)cccn12 [3d, 1-(8-(3-chlorophenyl)-2-methylimidazo[1,2-a]pyridin-3-yl)ethanone] | 114 to 116 | 89.1 | 59.1 | –
COc1cccc(-c2cccn3c(C(C)=O)c(C)nc23)c1 [3e, 1-(8-(3-methoxyphenyl)-2-methylimidazo[1,2-a]pyridin-3-yl)ethanone] | 116 to 119 | 65.3 | 46.4 | –
CC(=O)c1c(C)nc2c(-c3cccc4ccccc34)cccn12 [3f, 1-(2-methyl-8-(naphthalen-1-yl)imidazo[1,2-a]pyridin-3-yl)ethanone] | 179 to 182 | 23.1 | 14.3 | –
CC(=O)c1c(C)nc2c(-c3ccc(Cl)cc3)cccn12 [3g, 1-(8-(4-chlorophenyl)-2-methylimidazo[1,2-a]pyridin-3-yl)ethanone] | 111 to 114 | 195 | 219 | –
CCC(CCc1cccn2c(C(C)=O)c(C)nc12)C(=O)NC1CCCC1 (centres unmarked) [3h, 4-(3-acetyl-2-methylimidazo[1,2-a]pyridin-8-yl)-N-cyclopentyl-2-ethylbutanamide] | 117 to 119 | 114 | 105 | –
COc1cccc(-c2cccn3c(C(C)=O)c(C)nc23)c1F [3i, 1-(8-(2-fluoro-3-methoxyphenyl)-2-methylimidazo[1,2-a]pyridin-3-yl)ethanone] | 190 to 192 | 135 | 123 | –
CC(=O)c1c(C)nc2c(-c3ccccc3C)cccn12 [3j, 1-(2-methyl-8-(o-tolyl)imidazo[1,2-a]pyridin-3-yl)ethanone] | 157 to 159 | 189 | 166 | –
CC(=O)c1c(C)nc2c(-c3ccc(C(F)(F)F)cc3)cccn12 [3k, 1-(2-methyl-8-(4-(trifluoromethyl)phenyl)imidazo[1,2-a]pyridin-3-yl)ethanone] | 121 to 123 | – | > 500 | > 100
CCc1ccc(-c2cccn3c(C(C)=O)c(C)nc23)cc1 [3l, 1-(8-(4-ethylphenyl)-2-methylimidazo[1,2-a]pyridin-3-yl)ethanone] | 169 to 172 | 43.2 | > 500 | –
